Experimental data published in patent US11730746B2, “17beta-heterocyclyl-digitalis like compounds for the treatment of heart failure” (priority 2018, dated 2023).
“And” between values parts separate entries of the source, which are not always exact repeats. Identical values can stand only once.

Key:
Muscarinic M2 = molecular target: T1, Muscarinic M2 (Homo sapiens, UniProt P08172); test: Receptor binding 252710
T1 construct: Eurofins (contract assay) 252710
Protocol: (§1) Radioligand binding to a panel of receptors was carried out by Eurofins on crude membrane preparations according to published procedures and by using appropriate reference standard (Eurofins, CVie 101 compound code PT #1207859, study #AB76416, quote #68407-1, for Cvie Therapeutics Limited, Taiwan (R.OC.) on Mar. 5, 2017). CVie 101 was tested at the concentration of 10 μM. No significant interaction was documented, except for Sodium Channel, site 2 from rat (cat #279510), where a significant response (≥50%) was noted (Table 7).

Adrenergic β2 = molecular target: T2, Adrenergic β2 (Homo sapiens, UniProt P07550); test: Receptor binding 204110
T2 construct: Eurofins 204110; host or cells: crude membrane preparation
T2 sequence (P07550 whole entry): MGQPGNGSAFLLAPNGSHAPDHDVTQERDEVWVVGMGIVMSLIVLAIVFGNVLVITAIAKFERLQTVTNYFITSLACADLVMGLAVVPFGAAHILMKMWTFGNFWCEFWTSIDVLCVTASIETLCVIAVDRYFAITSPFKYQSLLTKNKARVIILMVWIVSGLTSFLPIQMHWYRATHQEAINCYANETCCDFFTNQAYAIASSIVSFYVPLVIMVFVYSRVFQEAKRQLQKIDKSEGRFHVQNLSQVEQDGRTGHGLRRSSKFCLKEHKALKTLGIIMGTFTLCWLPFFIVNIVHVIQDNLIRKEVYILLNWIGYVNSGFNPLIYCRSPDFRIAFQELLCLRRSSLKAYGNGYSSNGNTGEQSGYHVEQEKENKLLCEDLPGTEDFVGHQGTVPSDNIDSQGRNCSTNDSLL
Protocol: as §1

Dopamine D3 = molecular target: T3, Dopamine D3 (Homo sapiens, UniProt P35462); test: Receptor binding 219800
T3 construct: Eurofins 219800; host or cells: crude membrane preparation
T3 sequence (P35462 whole entry): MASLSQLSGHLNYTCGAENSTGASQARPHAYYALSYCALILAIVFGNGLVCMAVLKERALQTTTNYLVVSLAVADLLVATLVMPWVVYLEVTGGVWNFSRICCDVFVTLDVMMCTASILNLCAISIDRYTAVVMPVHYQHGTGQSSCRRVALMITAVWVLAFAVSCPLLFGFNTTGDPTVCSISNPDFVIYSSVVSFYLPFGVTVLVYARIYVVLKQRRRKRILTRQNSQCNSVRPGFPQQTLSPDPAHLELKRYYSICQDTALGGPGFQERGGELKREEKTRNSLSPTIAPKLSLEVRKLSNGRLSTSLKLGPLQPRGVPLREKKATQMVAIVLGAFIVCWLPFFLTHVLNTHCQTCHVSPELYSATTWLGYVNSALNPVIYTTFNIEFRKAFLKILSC
Protocol: as §1

Muscarinic M3 = molecular target: T4, Muscarinic M3 (Homo sapiens, UniProt P20309); test: Receptor binding 252810
T4 construct: Eurofins (contract assay) 252810
T4 sequence (P20309 whole entry): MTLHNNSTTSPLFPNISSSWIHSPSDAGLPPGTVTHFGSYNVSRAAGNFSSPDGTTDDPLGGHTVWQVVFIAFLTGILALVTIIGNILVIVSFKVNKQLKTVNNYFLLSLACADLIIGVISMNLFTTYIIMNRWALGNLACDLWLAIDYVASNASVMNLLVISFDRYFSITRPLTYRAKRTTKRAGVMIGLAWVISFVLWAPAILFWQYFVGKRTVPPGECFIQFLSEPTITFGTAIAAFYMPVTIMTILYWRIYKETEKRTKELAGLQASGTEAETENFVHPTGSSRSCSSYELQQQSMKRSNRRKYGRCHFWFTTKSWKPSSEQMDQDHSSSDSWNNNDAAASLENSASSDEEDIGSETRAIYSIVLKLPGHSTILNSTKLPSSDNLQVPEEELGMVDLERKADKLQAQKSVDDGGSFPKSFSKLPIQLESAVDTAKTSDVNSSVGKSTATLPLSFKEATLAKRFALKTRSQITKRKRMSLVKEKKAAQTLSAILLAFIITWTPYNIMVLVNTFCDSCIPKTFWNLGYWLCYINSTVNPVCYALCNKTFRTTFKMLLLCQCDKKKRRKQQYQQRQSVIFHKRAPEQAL
Protocol: as §1

[1] = test system: guinea pig isolated cardiomyocytes; test: SR Ca2+ uptake function (loading protocol) in isolated ventricular cardiomyocytes; assay type: cell-based; settings: 100 nM
Protocol: (§2) The compounds were characterized for their effect on (i) SR Ca^2+ uptake function, (ii) action potential (AP) in myocytes freshly dissociated from guinea-pig ventricles by retrograde coronary perfusion with enzymatic solution (Rocchetti M et al. J Pharmacol Exper Therap 2005; 313(1):207-215).
Drug effects on SR Ca^2+ uptake rate were evaluated with an SR “loading protocol” specifically devised to rule out the contribution of the Na/Ca exchanger (NCX) and to assess the uptake rate starting at low levels of SR Ca^2+ loading. Under voltage-clamp conditions, intracellular Ca^2+ concentration was dynamically measured by epifluorescence (Fluo4-AM). Membrane current, whose time-dependent component mainly reflected ICaL, was simultaneously recorded. The SR loading protocol consisted in emptying the SR (by a brief caffeine pulse) and then progressively refilling it by voltage steps activating Ca^2+ influx through the sarcolemmal Ca^2+ channel (ICaL). NCX was blocked by omission of Na^+ from intracellular and extracellular solutions. The procedure is in agreement with published methods, with minor modifications (Rocchetti M et al. J Pharmacol Exper Therap 2005; 313(1):207-215).
Drug effects on SR Ca^2+ uptake were analysed by considering multiple parameters: 1) the rate at which Ca^2+ transient (CaT) amplitude increased during the loading protocol, which reflects the rate at which the SR refilled and 2) the time constant of cytosolic Ca^2+ decay (Tdecay) within each pulse, reflecting net Ca^2+ transport rate (by SERCA2a) across the SR membrane (a decrease in Tdecay corresponds to enhanced SR Ca^2+ uptake).

Monoamine Oxidase MAO-B = molecular target: T5, Monoamine Oxidase MAO-B (Homo sapiens, UniProt P27338); test: Eurofins panel 140120; assay type: biochemical
T5 construct: Eurofins 140120
T5 sequence (P27338 whole entry): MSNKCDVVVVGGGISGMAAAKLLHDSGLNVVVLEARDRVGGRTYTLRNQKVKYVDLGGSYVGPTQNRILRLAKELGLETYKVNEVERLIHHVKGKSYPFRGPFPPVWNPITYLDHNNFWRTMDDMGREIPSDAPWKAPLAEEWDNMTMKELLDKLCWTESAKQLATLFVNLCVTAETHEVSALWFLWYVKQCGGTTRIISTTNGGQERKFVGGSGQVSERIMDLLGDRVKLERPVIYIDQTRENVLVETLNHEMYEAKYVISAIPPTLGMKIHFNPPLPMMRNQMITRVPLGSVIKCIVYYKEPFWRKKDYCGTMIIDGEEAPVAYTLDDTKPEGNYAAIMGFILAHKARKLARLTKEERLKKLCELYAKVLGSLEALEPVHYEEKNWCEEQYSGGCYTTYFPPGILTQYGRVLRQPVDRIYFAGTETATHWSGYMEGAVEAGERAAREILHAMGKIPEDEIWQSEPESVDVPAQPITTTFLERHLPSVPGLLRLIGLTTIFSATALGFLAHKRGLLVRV
Protocol: as §1

Dopamine D2s = molecular target: T6, Dopamine D2s (Homo sapiens, UniProt P14416); test: Receptor binding 219700
T6 construct: Eurofins 219700; host or cells: crude membrane preparation
T6 sequence (P14416 1-414 isoform P14416-2): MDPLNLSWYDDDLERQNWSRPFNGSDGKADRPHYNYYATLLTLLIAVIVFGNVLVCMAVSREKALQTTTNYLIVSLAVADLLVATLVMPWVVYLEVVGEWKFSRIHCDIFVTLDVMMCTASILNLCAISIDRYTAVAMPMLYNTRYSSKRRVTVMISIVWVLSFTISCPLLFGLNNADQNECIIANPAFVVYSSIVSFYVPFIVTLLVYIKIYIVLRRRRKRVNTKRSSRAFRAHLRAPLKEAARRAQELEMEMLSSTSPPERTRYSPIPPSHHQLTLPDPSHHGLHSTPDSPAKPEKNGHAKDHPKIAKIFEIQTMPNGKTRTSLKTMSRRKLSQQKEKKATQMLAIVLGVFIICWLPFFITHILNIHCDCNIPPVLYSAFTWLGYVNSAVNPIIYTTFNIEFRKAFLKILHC
Protocol: as §1

[2] = test system: guinea pig isolated cardiomyocytes; test: Action potential measurements in isolated ventricular cardiomyocytes; assay type: cell-based; settings: 100 nM
Excerpt: as §2
The action potential (AP) contour provides a first-line estimate of the integrated function of membrane ion channels and its changes may disclose ancillary actions, potentially resulting in untoward effects of the compound. To increase sensitivity of the AP contour as a reporter, effects on the rate-dependency of AP parameters were also tested, thus providing a multiparametric (more stringent) approach.
APs were recorded in normal Tyrode's solution at 36.5° C. The following parameters were measured at 4 stimulation rates (0.5-1-2-4 Hz): diastolic membrane potential (Edlast), maximum depolarization velocity (dV/dtmax), action potential duration (APD at 90%, 50% and 20% of repolarization), time constant (τ) of APD adaptation after a step change in stimulation rate. Short term APD variability (STV) during steady-state pacing, an index of repolarization stability, was measured as the sum of absolute ortogonal deviations from the identity line in the APDnfAPDn+1 plot (Poincare plot) (Altomare C et al, Circulation A&E 2015; 8:1265-1275).

Adenosine A1 = molecular target: T7, Adenosine A1 (Homo sapiens, UniProt P30542); test: Receptor binding 200510
T7 construct: Eurofins 200510; host or cells: crude membrane preparation
T7 sequence (P30542 whole entry): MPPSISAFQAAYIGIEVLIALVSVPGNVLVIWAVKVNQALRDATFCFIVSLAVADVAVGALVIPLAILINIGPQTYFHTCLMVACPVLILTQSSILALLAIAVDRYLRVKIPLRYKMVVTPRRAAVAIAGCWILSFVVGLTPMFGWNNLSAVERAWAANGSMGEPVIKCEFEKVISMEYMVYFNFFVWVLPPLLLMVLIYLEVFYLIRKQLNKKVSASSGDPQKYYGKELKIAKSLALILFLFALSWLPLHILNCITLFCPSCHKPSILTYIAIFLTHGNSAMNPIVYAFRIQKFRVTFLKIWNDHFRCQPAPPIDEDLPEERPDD
Protocol: as §1

Phorbol Ester = test: Receptor binding 264500; design: species or system mouse; settings: 10 μM
Protocol: as §1

[3] = molecular target: T8, Peptidase, Angiotensin Converting Enzyme (Oryctolagus cuniculus, UniProt P12822); test: Eurofins panel 107300; assay type: biochemical, rabbit
T8 construct: Eurofins 107300
T8 sequence (P12822 34-1310): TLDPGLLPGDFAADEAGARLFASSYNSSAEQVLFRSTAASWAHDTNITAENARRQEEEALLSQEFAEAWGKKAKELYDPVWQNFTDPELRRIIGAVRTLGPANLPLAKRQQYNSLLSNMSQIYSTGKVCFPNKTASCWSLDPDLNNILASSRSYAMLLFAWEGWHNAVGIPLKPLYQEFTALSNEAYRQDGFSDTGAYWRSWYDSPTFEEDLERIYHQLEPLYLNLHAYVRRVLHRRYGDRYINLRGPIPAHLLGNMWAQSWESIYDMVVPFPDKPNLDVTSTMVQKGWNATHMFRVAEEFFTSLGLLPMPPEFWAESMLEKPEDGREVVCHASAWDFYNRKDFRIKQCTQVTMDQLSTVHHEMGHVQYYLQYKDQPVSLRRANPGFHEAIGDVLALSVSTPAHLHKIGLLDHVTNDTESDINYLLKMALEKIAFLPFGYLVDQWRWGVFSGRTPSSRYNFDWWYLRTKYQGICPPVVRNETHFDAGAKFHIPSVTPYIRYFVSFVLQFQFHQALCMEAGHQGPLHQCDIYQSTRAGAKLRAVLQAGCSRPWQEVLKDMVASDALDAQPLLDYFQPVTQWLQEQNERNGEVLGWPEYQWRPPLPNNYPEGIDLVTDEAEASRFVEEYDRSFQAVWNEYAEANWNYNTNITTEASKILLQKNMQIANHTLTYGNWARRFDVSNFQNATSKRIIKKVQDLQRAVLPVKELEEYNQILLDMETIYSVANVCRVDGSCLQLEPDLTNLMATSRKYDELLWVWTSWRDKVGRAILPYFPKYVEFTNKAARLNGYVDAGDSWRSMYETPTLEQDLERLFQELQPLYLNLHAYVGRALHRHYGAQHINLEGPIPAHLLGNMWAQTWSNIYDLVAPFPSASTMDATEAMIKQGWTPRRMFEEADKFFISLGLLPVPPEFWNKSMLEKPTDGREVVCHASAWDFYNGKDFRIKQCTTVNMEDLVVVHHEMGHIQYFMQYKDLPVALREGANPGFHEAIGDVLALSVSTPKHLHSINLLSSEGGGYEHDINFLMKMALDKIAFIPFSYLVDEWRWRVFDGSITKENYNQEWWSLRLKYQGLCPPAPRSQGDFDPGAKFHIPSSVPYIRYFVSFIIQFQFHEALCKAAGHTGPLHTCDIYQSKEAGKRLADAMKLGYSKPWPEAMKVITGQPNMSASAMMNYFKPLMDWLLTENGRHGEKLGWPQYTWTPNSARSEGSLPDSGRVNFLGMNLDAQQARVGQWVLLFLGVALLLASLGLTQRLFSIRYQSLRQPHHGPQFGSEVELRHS

guinea pig = test: Haemodynamics: inotropic and lethal dose in guinea pig; assay type: in vivo; settings: for E max % increase in dP/dtmax: 90 min; for ED max: cumulative dose
Protocol: Guinea-pigs (400-450 g) were anaesthetized with urethane (1.5 g/kg ip). A microtip pressure transducer was introduced into the left ventricle through the right carotid artery to measure ventricular pressure (LVP); the transducer was coupled with a transducer amplifier. Recordings were fed to a polygraph and analyzed. A polythene cannula was inserted into a jugular vein for drug infusion. After a stabilization period, the test substance was injected at the rate of 0.16 ml/min for 90 min (Micheletti R et al. J Pharmacol Exp Ther 2002; 303:592-600).
The following parameters were obtained: heart rate (HR), left ventricular pressure (LVP), maximal velocity of pressure rise (+dP/dtmax) and decay (−dP/dtmax), ECG. For inotropy, the time elapsed until +dP/dtmax increased by 80% was identified in order to determine the ED80 (dose increasing basal +dP/dtmax by 80%). The time to the maximum increase in +dP/dtmax was also identified to determine the maximum effective dose, EDmax. Lusitropy was characterized by the dose inducing the maximum decrease in −dP/dtmax, (EDmax). As indexes of toxicity, the dose administered until the onset of arrhythmias and the dose inducing death (LD) were calculated. The safety ratio for the tested compound was also calculated as the ratio between LD and ED80.

T1 sequence (P08172 whole entry): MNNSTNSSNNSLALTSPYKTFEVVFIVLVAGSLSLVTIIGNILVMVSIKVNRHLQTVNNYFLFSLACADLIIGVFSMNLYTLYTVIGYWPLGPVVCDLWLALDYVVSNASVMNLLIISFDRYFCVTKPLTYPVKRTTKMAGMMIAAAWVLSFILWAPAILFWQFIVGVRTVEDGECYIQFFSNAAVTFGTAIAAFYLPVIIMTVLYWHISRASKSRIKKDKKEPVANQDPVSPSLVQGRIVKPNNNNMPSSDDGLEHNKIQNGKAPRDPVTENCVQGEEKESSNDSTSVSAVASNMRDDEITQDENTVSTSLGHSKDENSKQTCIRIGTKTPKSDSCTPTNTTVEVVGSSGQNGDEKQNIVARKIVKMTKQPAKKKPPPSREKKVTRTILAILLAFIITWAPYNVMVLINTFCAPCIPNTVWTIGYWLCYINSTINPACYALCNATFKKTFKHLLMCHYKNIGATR

C[C@]12CC[C@H](O)C[C@H]1CCC1C2CC[C@]2(C)[C@@H](c3c[nH]cn3)CC[C@]12O (stereo partly drawn) [CVie 101, 3β-hydroxy-5β-10β-methyl-13β-methyl-14β-hydroxy-17β-(imidazol-4-yl)androstane]
inhibition at 10 µM (Muscarinic M2): 7%
inhibition at 10 µM (Adrenergic β2): 1%
inhibition at 10 µM (Dopamine D3): 7%
inhibition at 10 µM (Muscarinic M3): 15%
rate of Ca2+ transient (CaT) increment during SR reloading ([1]; FIG. 1A, 1C): increased
time constant of cytosolic Ca2+ decay within each pulse (τdecay) ([1]; FIG. 1B, 1D): decreased
inhibition at 10 µM (Monoamine Oxidase MAO-B): 4%
inhibition at 10 µM (Dopamine D2s): 4%
short term APD variability (STV) ([2]; 0.5-1-2-4 Hz separately or pooled, FIG. 3): unaffected
diastolic membrane potential (Ediast) ([2]; 0.5-1-2-4 Hz, FIG. 2A): did not affect
maximum depolarization velocity (dV/dtmax) ([2]; FIG. 2B): did not affect
action potential duration (APD at 90%, 50% and 20% of repolarization) and its cycle-length dependency ([2]; FIG. 2C): did not affect
time constant of APD adaptation after a step change in cycle length ([2]; FIG. 2D): not shortened
inhibition at 10 µM (Adenosine A1): -4%
% inhib (Phorbol Ester): −4%
inhibition at 10 µM [3]: 5%
Dead/treated number (guinea pig; i.v. infusion 0.2 mg/kg/min): 1/8
ED80 (guinea pig; i.v. infusion 0.2 mg/kg/min): 1.6 mg/kg and 1.60 mg/kg
Lethal dose (guinea pig; i.v. infusion 0.2 mg/kg/min): >18 mg/kg
E max % increase in dP/dtmax (guinea pig; i.v. infusion 0.2 mg/kg/min): 163.6%
ED max (guinea pig; i.v. infusion 0.2 mg/kg/min): 3.73 mg/kg
Dead/treated number (guinea pig; i.v. infusion 0.5 mg/kg/min): 8/8
ED80 (guinea pig; i.v. infusion 0.5 mg/kg/min): 2.74 mg/kg
Lethal dose (guinea pig; i.v. infusion 0.5 mg/kg/min): 28.2 mg/kg
E max % increase in dP/dtmax (guinea pig; i.v. infusion 0.5 mg/kg/min): 216.8%
ED max (guinea pig; i.v. infusion 0.5 mg/kg/min): 5.08 mg/kg
LD/ED80 (guinea pig; i.v. infusion 0.5 mg/kg/min, safety ratio): 11.32
